Assay results: patent US6706740B2, “Fungicidal heterocyclic aromatic amides and their compositions, methods of use and preparation” (Dow AgroSciences LLC, priority 1999, dated 2004)
Read-outs that look alike come from different tables or passages of the source.

Key:
Ustilago maydis (USTIMA) = assay: microbe, parasite or virus in culture; type: cell-based; settings: Mycosarcoma maydis, read-out: USTIMA in vitro Growth Inhibition
[1] = test system: Mycosphaerella graminicola (Septoria tritici—SEPTTR); assay: In vitro fungal growth inhibition, Mycosphaerella graminicola (SEPTTR); type: cell-based; settings: Zymoseptoria tritici, read-out: SEPTTR in vitro Growth Inhibition
[2] = test system: Rhizoctonia solani (RHIZSO); assay: microbe, parasite or virus in culture; type: cell-based; settings: Rhizoctonia solani, read-out: RHIZSO in vitro Growth Inhibition
[3] = test system: Leptosphaeria nodorum—LEPTNO; assay: Glume Blotch of Wheat, in vivo whole plant, 24 Hour Protectant; settings: for pest or weed control at 100 ppm: Leptosphaeria, read-out: LEPTNO in vivo 1 Day Protectant
[4] = test system: Stagonospora nodorum (Leptosphaeria nodorum—LEPTNO); assay: In vitro fungal growth inhibition, Stagonospora nodorum (LEPTNO); type: cell-based; settings: Leptosphaeria, read-out: LEPTNO in vitro Growth Inhibition
Erysiphe graminis—ERYSGT = assay: Powdery Mildew of Wheat, in vivo whole plant, 24 Hour Protectant; settings: Erysiphe, read-out: ERYSGT in vivo 1 Day Protectant
[5] = test system: Phytophthora infestans (PHYTIN); assay: microbe, parasite or virus in culture; type: cell-based; settings: Phytophthora infestans, read-out: PHYTIN in vitro Growth Inhibition
[6] = test system: Puccinia recondita—PUCCRT; assay: Brown Rust of Wheat, in vivo whole plant, 24 Hour Protectant; settings: for pest or weed control at 100 ppm: Puccinia, read-out: PUCCRT in vivo 1 Day Protectant
Septoria tritici—SEPTTR = assay: Leaf Blotch of Wheat, in vivo whole plant, 24 Hour Protectant; settings: for pest or weed control at 100 ppm: Zymoseptoria tritici, 24 h, read-out: SEPTTR in vivo 1 Day Protectant
[7] = test system: Magnaporthe grisea (Pyricularia oryzae—PYRIOR); assay: microbe, parasite or virus in culture; type: cell-based; settings: Pyricularia oryzae, read-out: PYRIOR in vitro Growth Inhibition
[8] = test system: Phytophthora infestans—PHYTIN; assay: whole plant or invertebrate; type: in vivo; settings: Phytophthora, in Solanum lycopersicum, 24 h, read-out: PHYTIN in vivo 1 Day Protectant
[9] = 100 ppm spray, 24 hour protectant, wheat, control of fungal infection vs untreated plants
[10] = 100 ppm spray, wheat, 24 hour protectant, control of fungal infection vs untreated plants
[11] = wheat plants sprayed at 100 ppm, inoculated after 24 hours, control of fungal infection vs untreated plants

Row | SMILES | inhibition at 25 ppm (Ustilago maydis (USTIMA)) | inhibition at 25 ppm ([1]; 25 ppm in growth medium) | inhibition at 25 ppm [2] | pest or weed control at 100 ppm [3, 9] | inhibition at 25 ppm ([4]; 25 ppm in growth medium) | pest or weed control at 100 ppm (Erysiphe graminis—ERYSGT; [9]) | inhibition at 25 ppm [5] | pest or weed control at 100 ppm [6, 9] | inhibition at 25 ppm [7] | pest or weed control at 100 ppm [8] | pest or weed control at 100 ppm (Septoria tritici—SEPTTR; [9]) | pest or weed control at 100 ppm (Erysiphe graminis—ERYSGT; [10]) | pest or weed control at 100 ppm (Septoria tritici—SEPTTR; [10]) | further results
1 | COc1ccnc(C(=O)N[C@H]2CC3CC2[C@@H](COCc2cccc(C(F)(F)F)c2)C3)c1O (stereo partly drawn) [Compound 295] | < 80% | > 80% | > 80% | 25 to 74% | > 80% | < 25% | < 80% | 25 to 74% | > 80% | < 25% | – | – | – | SEPTTR in vivo 1 Day Protectant (Septoria tritici—SEPTTR; [9]): + +
2 | COc1ccnc(C(=O)N[C@H]2CO[C@@H](C(C)Cc3ccc(C(C)(C)C)cc3)OC2)c1O (stereo partly drawn) [Compound 317] | < 80% | < 80% | < 80% | < 25% | < 80% | < 25% | < 80% | – | < 80% | 25 to 74% | < 25% | – | – | PUCCRT in vivo 1 Day Protectant [6, 9]: + +
3 | COC(=O)C(COC(=O)COCc1ccccc1)NC(=O)c1nccc(OC)c1O (stereo not drawn) [Compound 346] | < 80% | < 80% | < 80% | – | < 80% | – | > 80% | – | < 80% | < 25% | – | < 25% | 25 to 74% | pest or weed control at 100 ppm [3, 10]: < 25%; pest or weed control at 100 ppm [6, 10]: 25 to 74%
4 | COc1ccnc(C(=O)NC2CC(C)(C)C(=O)C(C)(C)C2)c1O [Compound 266] | < 80% | < 80% | < 80% | 25 to 74% | < 80% | < 25% | < 80% | < 25% | < 80% | < 25% | 25 to 74% | – | – | –
5 | COc1ccnc(C(=O)Nc2ccc(Oc3ccccc3C#N)cc2)c1O [Compound 420] | < 80% | < 80% | < 80% | – | < 80% | – | < 80% | – | < 80% | < 25% | – | < 25% | < 25% | pest or weed control at 100 ppm [3, 10]: 25 to 74%; pest or weed control at 100 ppm [6, 10]: < 25%
6 | COc1ccnc(C(=O)N[C@H]2COC(=O)[C@H](Cc3ccccc3)[C@@H](OC(=O)Cc3ccccc3)[C@H](C)OC2=O)c1O [Compound 395] | > 80% | – | < 80% | – | – | – | < 80% | – | < 80% | < 25% | – | – | – | inhibition at 25 ppm [1]: > 80%; pest or weed control at 100 ppm ([3]; 24 h): 25 to 74%; inhibition at 25 ppm [4]: > 80%; pest or weed control at 100 ppm (Erysiphe graminis—ERYSGT; 24 h): < 25%; pest or weed control at 100 ppm ([6]; 24 h): 25 to 74%; pest or weed control at 100 ppm (Septoria tritici—SEPTTR): 25 to 74%
7 | COc1ccnc(C(=O)NC2CCN(C(=O)CCc3ccccc3)CC2)c1O [Compound 309] | < 80% | < 80% | < 80% | 25 to 74% | < 80% | 25 to 74% | < 80% | < 25% | < 80% | < 25% | < 25% | – | – | –
8 | COc1ccnc(C(=O)NC2CC(C)(C)CCCC2C)c1O (stereo not drawn) [Compound 277] | < 80% | > 80% | < 80% | 25 to 74% | > 80% | < 25% | < 80% | < 25% | < 80% | < 25% | – | – | – | SEPTTR in vivo 1 Day Protectant (Septoria tritici—SEPTTR; [9]): + +
9 | O=C(Nc1ccc(Oc2ccc(C(F)(F)F)cc2)cc1)c1nc(Br)ccc1O [Compound 499] | < 80% | – | < 80% | – | – | – | < 80% | – | < 80% | < 25% | – | – | – | inhibition at 25 ppm ([1]; 25 ppm in the growth medium): < 80%; pest or weed control at 100 ppm [3, 11]: 25 to 74%; inhibition at 25 ppm ([4]; 25 ppm in the growth medium): < 80%; pest or weed control at 100 ppm (Erysiphe graminis—ERYSGT; [11]): < 25%; pest or weed control at 100 ppm [6, 11]: 25 to 74%; pest or weed control at 100 ppm (Septoria tritici—SEPTTR; [11]): < 25%
10 | CCCCCCCCCNC(=O)c1ncccc1O [Compound 201] | < 80% | < 80% | < 80% | < 25% | < 80% | < 25% | < 80% | < 25% | > 80% | < 25% | < 25% | – | – | –
11 | O=C(NCC1CCCCC1)c1ncccc1O [Compound 202] | < 80% | < 80% | < 80% | < 25% | < 80% | < 25% | > 80% | < 25% | > 80% | < 25% | < 25% | – | – | –
12 | O=C(Nc1ccc(Oc2cccc(C(F)(F)F)c2)cc1)c1cscc1O [Compound 555] | < 80% | – | > 80% | – | – | – | > 80% | – | > 80% | < 25% | – | – | – | inhibition at 25 ppm ([1]; 25 ppm in the growth medium): > 80%; pest or weed control at 100 ppm [3, 11]: 25 to 74%; inhibition at 25 ppm ([4]; 25 ppm in the growth medium): > 80%; pest or weed control at 100 ppm (Erysiphe graminis—ERYSGT; [11]): < 25%; pest or weed control at 100 ppm [6, 11]: < 25%; pest or weed control at 100 ppm (Septoria tritici—SEPTTR; [11]): 25 to 74%
13 | COc1ccnc(C(=O)Nc2ccc(Oc3ccc(C)cc3)cc2)c1O [Compound 417] | < 80% | > 80% | < 80% | – | < 80% | – | < 80% | – | > 80% | < 25% | – | < 25% | < 25% | LEPTNO in vivo 1 Day Protectant [3, 10]: + +; pest or weed control at 100 ppm [6, 10]: < 25%
14 | COc1ccnc(C(=O)N[C@@H]2[C@@H](O)[C@H](O)[C@@H](CO)O[C@@H]2O)c1O [Compound 334, N-(3-HYDROXY-4-METHOXY-2-PYRIDYLCARBONYL)-2-AMINO-2-DEOXY-alpha-D-GLUCOPYRANOSE] | < 80% | < 80% | < 80% | – | < 80% | – | < 80% | – | < 80% | < 25% | – | < 25% | < 25% | pest or weed control at 100 ppm [3, 10]: 25 to 74%; pest or weed control at 100 ppm [6, 10]: < 25%
15 | COc1ccnc(C(=O)NC(COC(=O)C(Cc2ccccc2)C(C)O[Si](C)(C)C(C)(C)C)C(=O)OC(C)C)c1O (stereo not drawn) [Compound 357] | < 80% | – | < 80% | – | – | – | < 80% | – | < 80% | < 25% | – | < 25% | < 25% | inhibition at 25 ppm [1]: < 80%; pest or weed control at 100 ppm [3, 10]: 25 to 74%; inhibition at 25 ppm [4]: < 80%; PUCCRT in vivo 1 Day Protectant [6, 10]: + +
